Literature values as cited in patent publication US12539267B2, “Product for dyeing keratinous material, containing aminosilicone, a chromophoric compound and organic carbonic acid ester” (Henkel AG & Co. KGaA, priority 2019, dated 2026).

Settings: 25° C.

Row | solubility in water (in words) | SMILES | solubility in water
1 | – | O=S(=O)([O-])c1ccc(N=Nc2c(O)ccc3ccccc23)cc1.[Na+] [Acid Orange 7, sodium salt of 4-[(2-hydroxy-1-naphthyl)azo]benzene sulphonate] | more than 7 g/L
2 | – | Nc1cc(S(=O)(=O)[O-])cc2cc(S(=O)(=O)[O-])c(N=Nc3ccccc3)c(O)c12.[Na+].[Na+] [Acid Red 33, diantrium salt of 5-amino-4-hydroxy-3-(phenylazo)-naphthalene-2,7-disulphonate] | 2500 µg/mL
3 | – | O=C([O-])c1c(Cl)c(Cl)c(Cl)c(Cl)c1-c1c2c(Br)cc(=O)c(Br)c-2oc2c(Br)c(O)cc(Br)c12.O=C([O-])c1c(Cl)c(Cl)c(Cl)c(Cl)c1-c1c2c(Br)cc(=O)c(Br)c-2oc2c(Br)c(O)cc(Br)c12.[Na+].[Na+] [Acid Red 92, disodium salt of 3,4,5,6-tetrachloro-2-(1,4,5,8-tetrabromo-6-hydroxy-3-oxoxanthen-9-yl)benzoic acid] | greater than 10 g/L
4 | highly soluble in water | O=C([O-])C1=NN(c2ccc(S(=O)(=O)[O-])cc2)C(=O)C1N=Nc1ccc(S(=O)(=O)[O-])cc1.[Na+].[Na+].[Na+] (stereo not shown) [Acid Yellow 23, trisodium salt of 4,5-dihydro-5-oxo-1-(4-sulfophenyl)-4-((4-sulfophenyl)azo)-1H-pyrazole-3-carboxylic acid] | –
